Data as given in ChEMBL document CHEMBL3638529, “Spiro-oxindole MDM2 antagonists” (2015).

target: E3 ubiquitin-protein ligase Mdm2 (Homo sapiens, UniProt Q00987); assay: Fluorescence-Polarization Binding Assay: The binding affinity of the MDM2 inhibitors was determined using an optimized, sensitive and quantitative fluorescence polarization-based (FP-based) binding assay using a recombinant human His-tagged MDM2 protein (residues 1-118) and a fluorescently tagged p53-based peptide.The design of the fluorescence probe was based upon a previously reported …
Sequence (Q00987 whole entry, the tested form may be a part): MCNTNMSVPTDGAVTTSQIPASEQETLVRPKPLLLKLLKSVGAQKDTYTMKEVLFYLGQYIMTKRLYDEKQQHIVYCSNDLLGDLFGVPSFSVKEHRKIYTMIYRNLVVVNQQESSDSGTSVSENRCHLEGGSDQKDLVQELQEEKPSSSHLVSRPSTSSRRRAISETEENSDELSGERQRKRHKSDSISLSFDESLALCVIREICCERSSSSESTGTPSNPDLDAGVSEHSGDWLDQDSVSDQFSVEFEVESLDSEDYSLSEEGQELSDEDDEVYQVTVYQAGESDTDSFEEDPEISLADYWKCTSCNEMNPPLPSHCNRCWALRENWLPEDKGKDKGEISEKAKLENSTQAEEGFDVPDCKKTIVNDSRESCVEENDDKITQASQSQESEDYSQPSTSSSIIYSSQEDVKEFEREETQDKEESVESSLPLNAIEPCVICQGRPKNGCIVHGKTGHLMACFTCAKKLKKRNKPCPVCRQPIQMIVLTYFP
Description: The assay was performed in the buffer: 100 mM potassium phosphate, pH 7.5; 100 ug/mL bovine gamma globulin; 0.02% sodium azide, 0.01% Triton X-100).

Compound | IC50 [nM]
CC(C)(C)C[C@H]1N[C@@H](C(=O)NCC[C@H]2CC[C@H](NS(C)(=O)=O)C2)[C@H](c2cccc(Cl)c2F)[C@@]12C(=O)Nc1cc(Cl)c(F)cc12 | < 1000
CC(C)(C)C[C@H]1N[C@@H](C(=O)NCC[C@H]2CC[C@H](N)C2)[C@H](c2cccc(Cl)c2F)[C@@]12C(=O)Nc1cc(Cl)c(F)cc12 | < 1000
CC(C)(C)C[C@H]1N[C@@H](C(=O)NCCCNS(C)(=O)=O)[C@H](c2cccc(Cl)c2F)[C@@]12C(=O)Nc1cc(Cl)c(F)cc12 | < 1000
CC(C)(C)C[C@H]1N[C@@H](C(=O)NCCNS(C)(=O)=O)[C@H](c2cccc(Cl)c2F)[C@@]12C(=O)Nc1cc(Cl)c(F)cc12 | < 1000
